Assay results from US9481648B2, “Kinase inhibitors” (Respivert Limited, priority 2013, dated 2016).

Legend:
Syk = Syk (Homo sapiens (Human), UniProt P43405); experiment: Syk enzyme inhibition (FRET, Z-LYTE); format: biochemical
Description: (§1) The enzyme inhibitory activities of compounds disclosed herein are determined by FRET using synthetic peptides labelled with both donor and acceptor fluorophores (Z-LYTE, Invitrogen Ltd., Paisley, UK).
(§2) The relevant enzyme (3000 ng/mL or 2000 ng/mL respectively, 2.5 μL) is incubated with the test compound (either 1 μg/mL, 0.1 μg/mL, 0.01 μg/mL, or 0.001 μg/mL, 2.5 μL each) for 2 hr at RT. The FRET peptides (8 μM, 2.5 μL), and appropriate ATP solutions (2.5 μL, 800 μM for c-Src, and 60 μM ATP for Syk) are then added to the enzymes/compound mixtures and the mixture incubated for 1 hr. Development reagent (protease, 5 μL) is added for 1 hr prior to detection in a fluorescence microplate reader (Varioskan® Flash, ThermoFisher Scientific).
(§3) In all cases, the site-specific protease cleaves non-phosphorylated peptide only and eliminates the FRET signal. Phosphorylation levels of each reaction are calculated using the ratio of coumarin emission (donor) over fluorescein emission (acceptor), for which high ratios indicate high phosphorylation and low ratios indicate low phosphorylation levels.

c-Src = c-Src (Homo sapiens (Human), UniProt P12931); experiment: c-Src enzyme inhibition (FRET, Z-LYTE); format: biochemical
Sequence of c-Src (P12931 whole entry, looked up): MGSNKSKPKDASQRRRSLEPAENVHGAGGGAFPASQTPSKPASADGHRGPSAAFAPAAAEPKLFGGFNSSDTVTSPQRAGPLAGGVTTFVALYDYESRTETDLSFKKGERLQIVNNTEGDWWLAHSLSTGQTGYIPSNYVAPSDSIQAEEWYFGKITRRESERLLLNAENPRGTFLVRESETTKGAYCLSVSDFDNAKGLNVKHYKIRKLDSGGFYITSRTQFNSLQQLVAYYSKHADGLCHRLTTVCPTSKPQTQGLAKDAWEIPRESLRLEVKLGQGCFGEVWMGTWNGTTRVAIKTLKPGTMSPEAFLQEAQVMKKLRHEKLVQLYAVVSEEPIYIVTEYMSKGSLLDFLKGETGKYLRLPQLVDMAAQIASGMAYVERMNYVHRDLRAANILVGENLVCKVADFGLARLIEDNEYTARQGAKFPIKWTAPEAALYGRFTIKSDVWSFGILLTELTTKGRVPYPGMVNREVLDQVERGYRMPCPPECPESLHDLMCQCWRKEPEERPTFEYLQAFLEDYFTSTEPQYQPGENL
Description: as §1, §2, §3

GSK 3α = GSK 3α (Homo sapiens (Human), UniProt P49840); experiment: GSK 3α enzyme inhibition (FRET, Z-LYTE; Method 2); format: biochemical; conditions: read-out: IC50 Values for Enzyme Inhibition GSK3α
Sequence of GSK 3α (P49840 whole entry): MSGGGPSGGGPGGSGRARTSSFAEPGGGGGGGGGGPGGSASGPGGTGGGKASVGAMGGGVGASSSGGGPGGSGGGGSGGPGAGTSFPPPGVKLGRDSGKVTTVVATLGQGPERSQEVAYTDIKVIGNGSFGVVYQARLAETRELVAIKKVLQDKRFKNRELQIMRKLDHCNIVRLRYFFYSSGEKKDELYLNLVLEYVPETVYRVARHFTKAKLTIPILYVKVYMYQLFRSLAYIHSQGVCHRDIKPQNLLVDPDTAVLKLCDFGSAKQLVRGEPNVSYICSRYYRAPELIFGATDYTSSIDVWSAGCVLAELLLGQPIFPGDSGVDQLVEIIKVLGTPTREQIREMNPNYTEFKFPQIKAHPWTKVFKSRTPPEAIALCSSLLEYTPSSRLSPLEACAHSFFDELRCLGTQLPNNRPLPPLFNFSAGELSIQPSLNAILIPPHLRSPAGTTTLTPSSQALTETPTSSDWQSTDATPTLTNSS
Description: as §1
The inhibitory activities of compounds of the invention against the GSK 3α enzyme isoform (Invitrogen), are evaluated by determining the level of activation I phosphorylation of the target peptide. The GSK3-α protein (500 ng/mL, 2.5 μL) is mixed with the test compound (2.5 μL at either 4 μg/mL, 0.4 μg/mL, 0.04 μg/mL, or 0.004 μg/mL) for 2 hr at RT. The FRET peptide (8 μM, 2.5 μL), which is a phosphorylation target for GSK3α, and ATP (40 μM, 2.5 μL) are then added to the enzyme\compound mixture and the resulting mixture incubated for 1 hr. Development reagent (protease, 5 μL) is added for 1 hr prior to detection in a fluorescence microplate reader (Varioskan® Flash, ThermoFisher Scientific).
as §3
This method follows the same steps as Method 1 above, but utilises a shorter period of mixing of the test compound (105 minutes instead of 2 hours) with the GSK3-α protein. In addition, the concentrations of test compound employed are either 10 μg/mL, 1 μg/mL, 0.1 μg/mL, or 0.01 μg/mL

p38 MAPKα (MAPK14) = p38 MAPKα (MAPK14) (Homo sapiens (Human), UniProt Q16539); experiment: p38 MAPKα enzyme inhibition (FRET, Z-LYTE; Method 2); format: biochemical
Sequence of p38 MAPKα (MAPK14) (Q16539 whole entry): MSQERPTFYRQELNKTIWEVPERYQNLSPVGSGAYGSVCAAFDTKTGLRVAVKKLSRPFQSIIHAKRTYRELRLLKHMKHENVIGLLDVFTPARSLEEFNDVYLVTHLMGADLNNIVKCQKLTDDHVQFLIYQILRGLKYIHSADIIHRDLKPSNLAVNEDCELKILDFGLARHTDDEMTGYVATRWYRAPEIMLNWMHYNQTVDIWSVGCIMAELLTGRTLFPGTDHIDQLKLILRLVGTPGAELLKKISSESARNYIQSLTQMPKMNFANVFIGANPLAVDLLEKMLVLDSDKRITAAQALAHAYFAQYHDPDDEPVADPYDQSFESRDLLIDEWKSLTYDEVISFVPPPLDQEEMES
Description: as §1
The inhibitory activities of test compounds against the p38 MAPKα isoform (MAPK14: Invitrogen) are evaluated indirectly by determining the level of activation\phosphorylation of the down-stream molecule, MAPKAP-K2. The p38 MAPKα protein (80 ng/mL, 2.5 μL) is mixed with the test compound (2.5 μL of either 4 μg/mL, 0.4 μg/mL, 0.04 μg/mL or 0.004 μg/mL) for 2 hr at RT. […] The mixture is incubated for 1 hr at RT. Development reagent (protease, 5 μL) is added for 1 hr prior to detection in a fluorescence microplate reader (Vanoskan® Flash, ThermoFisher Scientific).
as §3

[1] = tested on: β-catenin in d-U937 cells; experiment: Accumulation of β catenin in d-U937 cells (assay m); format: cell-based, human
Description: U937 cells, a human monocytic cell line, are differentiated into macrophage-type cells by incubation with PMA (100 ng/mL) for between 48 to 72 hr. The cells are then incubated with either final concentrations of test compound or vehicle for 18 hr. The induction of β-catenin by the test compounds is stopped by replacing the media with 4% formaldehyde solution. Endogenous […] is neutralised by incubating with quenching buffer (100 μL, 0.1% sodium azide, 1% H2O2 in PBS with 0.05% Tween-20) for 20 min. The cells are washed with washing buffer (200 μL; PBS containing 0.05% Tween-20) and incubated with blocking solution (200 μL; 5% milk in PBS) for 1 hr, re-washed with washing buffer (200 μL) and then incubated overnight with anti-β-catenin antibody solution (50 μL) in 1% BSA/PBS (BD, Oxford, UK).
After washing with washing buffer (3×200 μL; PBS containing 0.05% Tween-20), cells are incubated with a HRP-conjugated secondary antibody solution (100 μL) in 1% BSA/PBS (Dako, Cambridge, UK) and the resultant signal is determined colourimetrically (OD: 450 nm with a reference wavelength of 655 nm) using TMB substrate (50 μL; R&D Systems, Abingdon, UK). This reaction is stopped by addition of 1N H2SO4 solution (50 μL). Cells are then washed with washing buffer and 2% crystal violet solution (50 μL) is applied for 30 min. After washing with washing buffer (3×200 μL), 1% SDS (100 μL) is added to each well and the plates are shaken lightly for 1 hr prior to measuring the absorbance at 595 nm (Varioskan® Flash, Thermo-Fisher Scientific).
The measured OD450-655 readings are corrected for cell number by dividing the OD450-655 by the OD595 readings.

Structure (SMILES)	IC50 (Syk) [nM]	IC50 (c-Src) [nM]	IC50 (GSK 3α) [nM]	IC50 (p38 MAPKα (MAPK14)) [nM]	% β-catenin induction ([1]; test compound 1 μg/mL) [%]	% β-catenin induction ([1]; test compound 5 μg/mL) [%]	% β-catenin induction ([1]; test compound 10 μg/mL) [%]
COCCOCCOCCOc1cc(Nc2nccc(Oc3ccc(NC(=O)Nc4cc(C(C)(C)C)cc(NS(C)(=O)=O)c4-c4ccccc4)c4ccccc34)n2)cc(OC)c1 [83(a), N-(4-(tert-butyl)-6-(3-(4-((2-((3-methoxy-5-(2-(2-(2-methoxyethoxy)ethoxy)ethoxy)phenyl)-amino)pyrimidin-4-yl)oxy)naphthalen-1-yl)ureido)-[1,1′-biphenyl]-2-yl)methane-sulfonamide]	1160	22	8330	142	–	–	–
COCCOCCOCCOc1cc(Nc2nccc(Oc3ccc(NC(=O)Nc4cc(C(C)(C)C)cc(C(=O)NCCO)c4OC)c4ccccc34)n2)cc(OC)c1 [Example 35, 5-(tert-Butyl)-N-(2-hydroxyethyl)-2-methoxy-3-(3-(4-((2-((3-methoxy-5-(2-(2-(2-methoxy-ethoxy)ethoxy)ethoxy)phenyl)amino)pyrimidin-4-yl)oxy)naphthalen-1-yl)ureido)-benzamide]	48	13	597	120	–	–	–
C#Cc1cc(Nc2nccc(Oc3ccc(NC(=O)Nc4cc(F)cc(N5CCOCC5)c4)c4ccccc34)n2)cc(C(=O)NCCN2CCOCC2)c1 [Example 2, 3-Ethynv-5-((4-((4-(3-(3-fluoro-5-morpholinophenyl)ureido)naphthalen-1-yl)oxy)-pyrimidin-2-yl)amino)-N-(2-morpholinoethyl)benzamide]	–	45	12700	37	−6	−4	–
COc1cc(Nc2nccc(Oc3ccc(NC(=O)Nc4cc(C(C)(C)C)cc(NS(C)(=O)=O)c4OC)c4ccccc34)n2)cc(OCCOCCOCCO)c1 [83(c), N-(5-(tert-butyl)-3-(3-(4-((2-((3-(2-(2-(2-hydroxyethoxy)ethoxy)ethoxy)-5-methoxyphenyl)-amino)pyrimidin-4-yl)oxy)naphthalen-1-yl)ureido)-2-methoxyphenyl)methanesulfonamide]	–	–	738	–	4	31	33
COc1c(NC(=O)Nc2ccc(Oc3ccnc(Nc4ccccc4)c3)c3ccccc23)cc(C(C)(C)C)cc1C(=O)NC1CCOCC1 [84(a), 3-[[4-[(2-Anilino-4-pyridyl)oxy]-1-naphthyl]carbamoylamino]-5-tert-butyl-2-methoxy-N-tetrahydropyran-4-yl-benzamide]	–	–	12600	275	–	–	–
COCCOCCOCCS(=O)(=O)c1cc(Nc2cc(Oc3ccc(NC(=O)Nc4cc(C(C)(C)C)cc(NS(C)(=O)=O)c4OC)c4ccccc34)ccn2)cc(OC)c1 [Example 85(y), 1-[5-tert-Butyl-3-(methanesulfonamido)-2-methoxyphenyl]-3-[4-[2-[3-methoxy-5-[2-[2-(2-methoxyethoxy)ethoxy]ethylsulfonyl]anilino]pyridin-4-yl]oxy-1-naphthyl]urea]	1160	206	2630	–	–	–	–
COc1cc(Nc2nccc(Oc3ccc(NC(=O)Nc4cc(C(C)(C)C)cc(NS(C)(=O)=O)c4OC)c4ccccc34)n2)cc(OCCOCCOCCN(C)C)c1 [Example 15, N-(5-(tert-Butyl)-3-(3-(4-((2-((3-(2-(2-(2-(dimethylamino)ethoxy)ethoxy)ethoxy)-5-methoxyphenyl)amino)pyrimidin-4-yl)oxy)naphthalen-1-yl)ureido)-2-methoxyphenyl)-methanesulfonamide]	237	–	905	–	−2	−6	−17
C#Cc1cc(Nc2nccc(Oc3ccc(NC(=O)Nc4cc(C(C)(C)C)cc(C(=O)NC)c4OC)c4ccccc34)n2)cc(C(=O)NCCN2CCOCC2)c1 [Example 9]	27	8	1630	–	32	48	67
COc1cc(Nc2cc(Oc3ccc(NC(=O)Nc4cc(C(C)(C)C)cc(NS(C)(=O)=O)c4OC)c4ccccc34)ccn2)cc(C(=O)NCC(=O)N2CCOCC2)c1 [Example 85(a), 3-[[4-[[4-[[5-tert-Butyl-3-(methanesulfonamido)-2-methoxyphenyl]-carbamoylamino]-1-naphthyl]oxy]-2-pyridyl]amino]-5-methoxy-N-(2-morvholino-2-oxo-ethyl)benzamide]	656	29	6740	38	–	–	–
COCCOCCOCCOc1cc(Nc2nccc(Oc3ccc(NC(=O)Nc4cc(C(C)(C)C)cc(C(=O)NCC(=O)OC)c4OC)c4ccccc34)n2)cc(OC)c1 [Example 37, Methyl 2-(5-(tert-butyl)-2-methoxy-3-(3-(4-((2-((3-methoxy-5-(2-(2-(2-methoxyethoxy)-ethoxy)ethoxy)phenyl)amino)pyrimidin-4-yl)oxy)naphthalen-1-yl)ureido)benzamido)-acetate]	43	12	1520	–	4	38	46
COc1c(NC(=O)Nc2ccc(Oc3ccnc(NCc4ccccn4)c3)c3ccccc23)cc(C(C)(C)C)cc1C(=O)NC1COC1 [Example 80, 5-(tert-Butyl)-2-methoxy-N-(oxetan-3-yl)-3-(3-(4-((2-((pyridin-2-ylmethyl)amino)pyridin-4-yl)oxy)naphthalen-1-yl)ureido)benzamide]	–	968	1250	18	5	38	47
COCCOCCOCCOc1cc(Nc2nccc(Oc3ccc(NC(=O)Nc4cc(C(C)(C)C)cc(C(=O)NC5CC5)c4OC)c4ccccc34)n2)cc(OC)c1 [Example 33, 5-(tert-Butyl)-N-cyclopropyl-2-methoxy-3-(3-(4-((2-((3-methoxy-5-(2-(2-(2-methoxy-ethoxy)ethoxy)ethoxy)phenyl)amino)pyrimidin-4-yl)oxy)naphthalen-1-yl)ureido)-benzamide]	28	11	828	–	–	–	–
CNC(=O)c1cc(NC(=O)Nc2ccc(Oc3ccnc(Nc4cc(OC)cc(OCCOCCOCCOC)c4)n3)c3ccccc23)cc(C(C)(C)C)c1 [Example 23, 3-(tert-Butyl)-5-(3-(4-((2-((3-methoxy-5-(2-(2-(2-methoxyethoxy)ethoxy)ethoxy)phenyl)-amino)pyrimidin-4-yl)oxy)naphthalen-1-yl)ureido)-N-methylbenzamide]	147	–	733	–	−4	10	9
